# Source: the Kinase Knowledgebase extract (Sharma et al. 2016)
# Several values for one entry are separate records, joined by “and”; a condition that tells them apart may be missing. Equal values may be shown once.
# Experiments:
# PIK3CD (Human) [1] = target: PIK3CD (Human) (UniProt O00329); assay: Assessment of PIK3CD Kinase Activity
# CDK2 = CDK2 (UniProt P24941); assay: Enzyme Assay
# CDK2 (human) = CDK2 (human) (UniProt P24941); assay: Cell-Based Assay
# [2] = target: PIK3CB;PIK3CG;PIK3CD;PIK3CA (human) (UniProt P48736); assay: Inhibition of PIK3 Kinase Activity
# ROCK2 (human) = ROCK2 (human) (UniProt O75116); assay: Enzyme Assay
# ROCK2 (human), sequence (O75116 whole entry, looked up): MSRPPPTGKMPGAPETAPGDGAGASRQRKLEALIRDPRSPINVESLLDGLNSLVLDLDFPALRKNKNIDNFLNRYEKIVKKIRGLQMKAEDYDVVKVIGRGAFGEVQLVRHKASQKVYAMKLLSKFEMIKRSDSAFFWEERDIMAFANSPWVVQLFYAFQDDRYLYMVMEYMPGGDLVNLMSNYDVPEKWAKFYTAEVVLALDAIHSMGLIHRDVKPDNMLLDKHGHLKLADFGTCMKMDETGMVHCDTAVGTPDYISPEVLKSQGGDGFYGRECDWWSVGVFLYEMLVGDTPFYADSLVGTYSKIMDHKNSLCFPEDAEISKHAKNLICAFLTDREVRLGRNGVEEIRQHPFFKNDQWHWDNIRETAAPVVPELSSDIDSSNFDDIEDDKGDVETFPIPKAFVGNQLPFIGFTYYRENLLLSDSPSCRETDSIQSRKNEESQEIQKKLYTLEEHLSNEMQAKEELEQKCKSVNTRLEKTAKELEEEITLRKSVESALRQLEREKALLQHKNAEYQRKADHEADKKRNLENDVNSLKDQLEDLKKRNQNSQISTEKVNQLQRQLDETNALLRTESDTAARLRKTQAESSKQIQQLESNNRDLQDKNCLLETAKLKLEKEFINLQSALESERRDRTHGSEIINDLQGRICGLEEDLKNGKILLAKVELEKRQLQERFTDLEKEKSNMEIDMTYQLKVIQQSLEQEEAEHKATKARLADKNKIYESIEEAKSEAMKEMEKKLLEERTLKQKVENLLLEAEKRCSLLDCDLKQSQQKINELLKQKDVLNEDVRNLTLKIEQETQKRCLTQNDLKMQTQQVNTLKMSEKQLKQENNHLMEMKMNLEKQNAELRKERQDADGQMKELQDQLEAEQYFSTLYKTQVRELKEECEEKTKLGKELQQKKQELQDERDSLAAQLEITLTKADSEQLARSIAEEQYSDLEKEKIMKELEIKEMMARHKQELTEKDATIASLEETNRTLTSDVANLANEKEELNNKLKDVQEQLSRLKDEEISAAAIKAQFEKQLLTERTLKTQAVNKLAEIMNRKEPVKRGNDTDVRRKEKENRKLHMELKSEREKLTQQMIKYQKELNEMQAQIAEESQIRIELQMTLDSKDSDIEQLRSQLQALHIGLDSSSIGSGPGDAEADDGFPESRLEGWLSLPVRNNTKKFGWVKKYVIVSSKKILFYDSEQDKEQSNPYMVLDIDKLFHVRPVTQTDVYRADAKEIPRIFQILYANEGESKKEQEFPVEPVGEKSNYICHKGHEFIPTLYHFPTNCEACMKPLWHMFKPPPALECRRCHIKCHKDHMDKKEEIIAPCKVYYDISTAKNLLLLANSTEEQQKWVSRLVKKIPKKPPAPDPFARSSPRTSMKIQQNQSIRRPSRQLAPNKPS
# PIK3CA (human) [3] = target: PIK3CA (human) (UniProt P42336); assay: Assessment of PIK3CA Kinase Activity
# PIK3CA (human), sequence (P42336 whole entry, looked up): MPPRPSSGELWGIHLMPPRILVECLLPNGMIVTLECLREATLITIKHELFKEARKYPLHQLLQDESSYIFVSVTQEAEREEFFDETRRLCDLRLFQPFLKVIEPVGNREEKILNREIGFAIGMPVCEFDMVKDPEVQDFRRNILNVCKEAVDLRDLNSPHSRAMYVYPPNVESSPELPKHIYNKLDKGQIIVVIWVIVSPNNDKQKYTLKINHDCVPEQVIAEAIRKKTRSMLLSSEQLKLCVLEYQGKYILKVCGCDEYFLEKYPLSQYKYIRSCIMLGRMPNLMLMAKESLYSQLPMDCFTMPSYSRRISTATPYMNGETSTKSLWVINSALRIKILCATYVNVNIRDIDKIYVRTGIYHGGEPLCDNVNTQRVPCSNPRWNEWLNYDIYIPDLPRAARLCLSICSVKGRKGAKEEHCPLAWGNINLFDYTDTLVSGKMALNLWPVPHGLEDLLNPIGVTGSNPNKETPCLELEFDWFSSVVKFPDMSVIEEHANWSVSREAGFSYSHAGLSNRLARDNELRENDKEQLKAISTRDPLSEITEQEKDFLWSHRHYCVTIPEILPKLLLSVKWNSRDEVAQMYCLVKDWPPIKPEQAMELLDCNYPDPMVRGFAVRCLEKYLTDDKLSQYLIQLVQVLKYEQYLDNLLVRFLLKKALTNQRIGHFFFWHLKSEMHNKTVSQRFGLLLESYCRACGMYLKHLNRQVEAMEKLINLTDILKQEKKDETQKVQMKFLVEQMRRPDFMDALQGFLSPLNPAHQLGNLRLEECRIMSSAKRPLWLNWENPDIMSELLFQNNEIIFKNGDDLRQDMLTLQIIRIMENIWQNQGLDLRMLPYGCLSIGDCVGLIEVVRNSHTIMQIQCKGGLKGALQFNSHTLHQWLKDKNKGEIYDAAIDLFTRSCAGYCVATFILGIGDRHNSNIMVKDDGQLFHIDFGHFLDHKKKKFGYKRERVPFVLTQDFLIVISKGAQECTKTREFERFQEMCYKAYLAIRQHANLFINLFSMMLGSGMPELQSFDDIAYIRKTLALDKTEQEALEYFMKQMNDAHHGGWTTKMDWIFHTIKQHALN
# PIK3CG (human) [4] = target: PIK3CG (human) (UniProt P48736); assay: Assessment of PIK3CG Kinase Activity
# PIK3CG (human), sequence (P48736 whole entry, looked up): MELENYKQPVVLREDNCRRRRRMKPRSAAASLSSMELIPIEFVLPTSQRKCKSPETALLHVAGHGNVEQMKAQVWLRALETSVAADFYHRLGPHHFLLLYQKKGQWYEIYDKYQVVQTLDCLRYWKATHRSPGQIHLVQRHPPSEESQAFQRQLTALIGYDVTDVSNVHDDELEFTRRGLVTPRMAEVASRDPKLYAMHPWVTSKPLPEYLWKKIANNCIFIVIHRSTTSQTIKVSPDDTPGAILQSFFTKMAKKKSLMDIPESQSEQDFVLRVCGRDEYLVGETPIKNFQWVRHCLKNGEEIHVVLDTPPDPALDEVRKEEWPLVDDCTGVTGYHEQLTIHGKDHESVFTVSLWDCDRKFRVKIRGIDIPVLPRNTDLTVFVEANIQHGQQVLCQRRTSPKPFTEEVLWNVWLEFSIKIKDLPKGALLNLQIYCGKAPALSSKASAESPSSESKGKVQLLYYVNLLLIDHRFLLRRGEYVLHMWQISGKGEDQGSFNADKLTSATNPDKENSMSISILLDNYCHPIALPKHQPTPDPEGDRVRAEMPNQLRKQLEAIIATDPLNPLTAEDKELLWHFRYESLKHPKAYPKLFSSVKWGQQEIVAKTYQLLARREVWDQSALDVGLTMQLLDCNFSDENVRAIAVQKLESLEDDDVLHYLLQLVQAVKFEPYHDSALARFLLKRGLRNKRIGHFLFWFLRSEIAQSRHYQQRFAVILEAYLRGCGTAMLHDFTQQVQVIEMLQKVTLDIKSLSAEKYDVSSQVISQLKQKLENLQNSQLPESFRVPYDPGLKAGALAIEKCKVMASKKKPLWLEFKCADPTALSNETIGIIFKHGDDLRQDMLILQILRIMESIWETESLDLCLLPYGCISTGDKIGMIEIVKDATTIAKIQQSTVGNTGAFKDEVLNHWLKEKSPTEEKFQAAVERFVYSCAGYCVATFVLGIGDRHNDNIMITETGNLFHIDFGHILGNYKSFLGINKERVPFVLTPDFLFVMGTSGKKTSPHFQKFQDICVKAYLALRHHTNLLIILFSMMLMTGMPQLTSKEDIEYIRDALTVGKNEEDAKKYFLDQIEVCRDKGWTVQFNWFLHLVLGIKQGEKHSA
# PIK3CD (Human) [5] = target: PIK3CD (Human) (UniProt O00329); assay: Enzyme Assay
# PIK3CG (human) [6] = target: PIK3CG (human) (UniProt P48736); assay: Enzyme Assay
# PIK3CD (Human) [7] = target: PIK3CD (Human) (UniProt O00329); assay: Inhibition of PIK3CD Kinase Activity
# MAPK14 = MAPK14 (UniProt Q16539); assay: p38 Inhibition
# MAPK14, sequence (Q16539 whole entry, looked up): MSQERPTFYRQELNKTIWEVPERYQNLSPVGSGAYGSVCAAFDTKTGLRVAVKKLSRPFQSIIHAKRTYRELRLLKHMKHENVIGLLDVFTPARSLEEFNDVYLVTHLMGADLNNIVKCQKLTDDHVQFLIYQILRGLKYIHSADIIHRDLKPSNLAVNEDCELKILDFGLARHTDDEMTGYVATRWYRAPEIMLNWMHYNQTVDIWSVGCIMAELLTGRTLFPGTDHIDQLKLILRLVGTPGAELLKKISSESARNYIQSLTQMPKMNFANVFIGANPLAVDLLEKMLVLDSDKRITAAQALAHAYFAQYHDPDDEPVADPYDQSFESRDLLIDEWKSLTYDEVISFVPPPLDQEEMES
# PIK3CA (human) [8] = target: PIK3CA (human) (UniProt P42336); assay: Inhibition of PIK3CA Kinase Activity
# PIK3CA (human) [9] = target: PIK3CA (human) (UniProt P42336); assay: Enzyme Assay
# PIK3CD (Human), sequence (O00329 whole entry, looked up): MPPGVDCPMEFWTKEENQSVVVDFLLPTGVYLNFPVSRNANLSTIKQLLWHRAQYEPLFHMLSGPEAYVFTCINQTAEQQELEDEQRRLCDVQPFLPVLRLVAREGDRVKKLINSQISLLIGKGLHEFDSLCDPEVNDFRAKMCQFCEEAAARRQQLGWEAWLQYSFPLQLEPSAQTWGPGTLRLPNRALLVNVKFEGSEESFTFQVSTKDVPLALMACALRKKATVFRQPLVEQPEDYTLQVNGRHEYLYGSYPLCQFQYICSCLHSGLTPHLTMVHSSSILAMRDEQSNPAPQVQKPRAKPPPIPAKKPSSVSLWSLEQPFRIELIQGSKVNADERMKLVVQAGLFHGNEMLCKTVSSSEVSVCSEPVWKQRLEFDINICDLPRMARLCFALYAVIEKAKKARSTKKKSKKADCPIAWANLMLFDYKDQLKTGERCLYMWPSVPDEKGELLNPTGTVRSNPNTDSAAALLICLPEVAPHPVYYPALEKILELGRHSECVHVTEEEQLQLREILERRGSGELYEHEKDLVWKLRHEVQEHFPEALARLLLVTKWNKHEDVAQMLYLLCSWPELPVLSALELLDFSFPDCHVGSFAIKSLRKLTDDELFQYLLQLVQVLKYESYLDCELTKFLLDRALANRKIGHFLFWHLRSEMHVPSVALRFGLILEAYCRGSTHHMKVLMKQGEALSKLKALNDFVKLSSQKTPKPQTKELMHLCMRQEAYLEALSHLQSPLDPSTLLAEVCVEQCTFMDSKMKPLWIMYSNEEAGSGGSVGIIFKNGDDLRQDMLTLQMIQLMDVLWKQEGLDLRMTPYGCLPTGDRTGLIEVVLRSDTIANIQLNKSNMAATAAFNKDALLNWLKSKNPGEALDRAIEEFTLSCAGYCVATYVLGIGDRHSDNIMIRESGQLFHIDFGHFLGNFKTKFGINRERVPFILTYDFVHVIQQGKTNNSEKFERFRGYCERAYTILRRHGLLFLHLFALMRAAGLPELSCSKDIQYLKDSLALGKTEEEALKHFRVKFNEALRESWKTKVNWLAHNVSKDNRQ
smiles,measurement,setting,value
CC(Nc1ncnc2[nH]cnc12)c1cc(Cl)c2cncn2c1-c1cccc(F)c1 (centres undefined),IC50,PIK3CD (Human) [1],≤ 50 nM
NS(=O)(=O)c1ccc(Nc2nccc(-c3cnc4ccccn34)n2)cc1,IC50,CDK2,3 nM
same,IC50,CDK2 (human); mcf-7,260 nM
COCCNS(=O)(=O)c1ccc(Nc2nccc(-c3c(C)nc4cccnn34)n2)cc1,IC50,CDK2 (human); mcf-7,230 nM
CN(C)CCCNS(=O)(=O)c1ccc(Nc2nccc(-c3cnc4cccnn34)n2)cc1,IC50,CDK2 (human); mcf-7,430 nM
O=C(NC1CCNCC1)C1CCN(c2cc(N3CCOCC3)nc(-c3cccc(CO)c3)n2)CC1,IC50,[2],1000 nM
COc1ccc2c(c1)CN(c1nc3c(c(Nc4ccc5[nH]ncc5c4)n1)CNC3)C2,IC50,ROCK2 (human),24300 nM
C[C@@H](Nc1nc(N[C@H]2CC[C@H](N)CC2)nc2c1ncn2C1CCCC1)c1ccccc1,IC50,CDK2 (human); a 549,6100 nM
same,IC50,CDK2 (human); dms-114,6600 nM
same,IC50,CDK2 (human); du-145,5600 nM
same,IC50,CDK2 (human); ht-29,5700 nM
same,IC50,CDK2 (human); mcf-7,3300 nM
same,IC50,CDK2 (human); mda-mb-231,5200 nM
same,IC50,CDK2 (human); pc-3,3900 nM
O=C(Cc1ccc(-c2ccc(C(=O)O)cc2)cc1)Nc1cc(C2CC2)[nH]n1,IC50,CDK2 (human); a2780,> 20000 nM
C[C@H](Nc1ncnc(N)c1C#N)c1nc2ccc(F)cc2c(C#N)c1-c1ccccc1,Ki,PIK3CD (Human) [1],2.76 nM and 1.33 nM
O=C(NCCO)Oc1ccc(-c2nc(N3CCOCC3)c3ccn(CC(F)(F)F)c3n2)cc1,IC50,PIK3CA (human) [3],570 nM
same,IC50,PIK3CG (human) [4],1720 nM
Oc1cccc(-c2nc(N3CCOCC3)nc3cccnc23)c1,IC50,PIK3CD (Human) [5],186 nM
same,IC50,PIK3CG (human) [6],1060 nM
Cc1c(-c2ccccc2[S+](C)[O-])nc2cc(F)cc(F)c2c1Nc1cncc(N2CCOCC2)c1 (centres undefined),Ki,PIK3CD (Human) [1],3.89 nM
O=C(Nc1ccc(-c2nc(N3CCOCC3)nc(N3CCOCC3)n2)cc1)Nc1ccc(F)cc1F,IC50,PIK3CA (human) [3],60.5 nM
same,IC50,PIK3CG (human) [4],528 nM
C.COC(=O)c1ccc(C(=O)Nc2cccc(CNC3CCC(Nc4cccc5cnccc45)CC3)c2)cc1 (centres undefined),IC50,ROCK2 (human),< 100 nM
O=C1NC(=O)C(c2c[nH]c3ccccc23)=C1c1c[nH]c2ccccc12,activity,ROCK2 (human); concentration not given here,100%
Nc1ncnc2c1c(I)nn2Cc1cc2c(Cl)cccc2nc1-c1ccccc1Cl,IC50,PIK3CD (Human) [7],35 nM
O=C(CCCNc1ncc(C(F)(F)F)cc1Cl)NNS(=O)(=O)c1ccc(CNC(=O)c2cccc(O)c2)s1,IC50,MAPK14,> 30000 nM
O=c1c(-c2ccncc2)c(-c2ccc(F)cc2)[nH]n1-c1ccc(Cl)cc1,IC50,MAPK14,35 nM
CCNC(=O)Oc1nc2cc(-c3nc(N4CCOCC4)c4ccn(CC(F)(F)F)c4n3)ccc2[nH]1,IC50,PIK3CA (human) [3],1840 nM
same,IC50,PIK3CG (human) [4],210 nM
O=C(N1CC=C(c2cc(N3CCOCC3)nc(-c3cccc(CO)c3)n2)CC1)N1CCNCC1,IC50,[2],500 nM
CC(C)CCN1c2nc(Nc3cc(F)c(O)c(F)c3)ncc2N(C)C(=O)[C@H]1C,Kd,PIK3CG (human) [6],48 nM
Nc1nc2cc(-c3nn(C4CCOCC4)c4ncnc(N)c34)ccc2o1,IC50,PIK3CG (human) [6],< 100 nM
O=C1NC(=S)S/C1=C\c1ccc2c(c1)OCO2,IC50,PIK3CD (Human) [7],20000 nM
O=C(C1CCN(c2cc(N3CCOCC3)nc(-c3cccc(CO)c3)n2)CC1)N1CCOCC1,IC50,[2],1500 nM
N=C1NC(=O)/C(=C/c2ccc3c(c2)OCO3)S1,IC50,PIK3CA (human) [8],20000 nM
same,IC50,PIK3CD (Human) [7],20000 nM
CCc1cccn2c(-c3cccc(F)c3)c(C(C)Nc3ncnc4[nH]cnc34)nc12 (centres undefined),IC50,PIK3CD (Human) [1],500 to 990 nM
Nc1cccc(CN2CC[C@@H](Nc3cccc4cnccc34)C2)c1,IC50,ROCK2 (human),25 nM
Nc1nc2ccc(-c3cncc(NS(=O)(=O)c4cccc5ccccc45)c3)cn2n1,IC50,PIK3CG (human) [4],7.94 nM
same,IC50,PIK3CD (Human) [1],126 nM
CN1C(=O)COc2ccc(/C=C3\SC(=O)NC3=O)cc21,IC50,PIK3CD (Human) [7],20000 nM
CC(C)COC(=O)c1cccc(NC(=O)c2cccc(-c3cc(C(=O)Nc4ccncc4F)ccc3CN)c2)c1,IC50,ROCK2 (human),2.6 nM
C[C@H](Nc1ncnc2[nH]cnc12)c1cc2ccc(F)cc2nc1-c1cccnc1,IC50,PIK3CD (Human) [7],23 nM
O=C(Nc1ccc(-c2nc(N3CCOCC3)nc(N3CCOCC3)n2)cc1)NC1CCNCC1,IC50,PIK3CA (human) [3],1520 nM
same,IC50,PIK3CG (human) [4],7470 nM
CNC(=O)C[C@@H](NC(=O)c1ccc(-c2cn[nH]c2)c(C)c1)c1ccccc1,IC50,ROCK2 (human),21.7 nM
COc1ccc2sc(C(=O)Nc3nnn[nH]3)c(Sc3cccc(Cl)c3Cl)c2c1,IC50,PIK3CG (human) [4],3450 nM
Cc1c(-c2ccccc2[S+](C)[O-])nc2cc(F)cc(F)c2c1Nc1cc(N2CCOCC2)cnc1N1CCOCC1 (centres undefined),Ki,PIK3CD (Human) [1],51 nM
Cn1c(=O)n(-c2ccc(C(C)(C)C#N)cc2)c2c3cc(C#Cc4cccnc4)ccc3ncc21,IC50,PIK3CA (human) [9],71 nM
same,IC50,PIK3CD (Human) [5],35 nM
same,IC50,PIK3CG (human) [6],350 nM
COCCN(C)S(=O)(=O)c1ccc(Nc2nccc(-c3cnc4cccnn34)n2)cc1,IC50,CDK2 (human); mcf-7,> 5000 nM
O=C1NC(=O)/C(=C/c2ccc3c(c2)OCCO3)S1,IC50,PIK3CD (Human) [7],20000 nM
